Legend:
Assay in all cases: UV melting at 295 nm
[1] = system: RET (DNA, G4) GGGGCGGGGCGGGGCGGGGT; settings: 10 mM KCl, 90 mM LiCl; 10 mM Tris-HCl pH 7.2; 2 µM DNA, 3 equiv. ligand; Tm 75.30 ± 0.80 to 76.4 ± 1.2
[2] = system: c-KIT1 (DNA, G4) AGGGAGGGCGCTGGGAGGAGGG; settings: 10 mM KCl, 90 mM LiCl; 10 mM Tris-HCl pH 7.2; 2 µM DNA, 3 equiv. ligand; Tm 52.9 ± 1.0 to 54.40 ± 0.60
[3] = system: catG4 (DNA, G4) TGGGTAGGGCGGGTTGGGAAA; settings: 10 mM KCl, 90 mM LiCl; 10 mM Tris-HCl pH 7.2; 2 µM DNA, 3 equiv. ligand; Tm 63.30 ± 0.10 to 62.80 ± 0.30
[4] = system: c-MYC (DNA, G4) TGAGGGTGGGTAGGGTGGGTAA; settings: 10 mM KCl, 90 mM LiCl; 10 mM Tris-HCl pH 7.2; 2 µM DNA, 3 equiv. ligand; Tm 79.10 ± 0.10 to 80.6 ± 1.7

- ΔTm [1]: 1.1 °C
- ΔTm [2]: 1.5 °C
- ΔTm [3]: -0.5 °C
- ΔTm [4]: 1.5 °C
Compound: COc1nc2c(N)ncnc2[n+]2ccccc12
